Publication PMC6961122 (Bioorganic & Medicinal Chemistry, 2020)
Like-named read-outs stand apart in the source and are kept apart here.

Experiments:
U87 cells = assay: Cell viability assay (PrestoBlue, 5 d) in U87 glioma cells; type: cell-based; settings: library screen, 5 d treatment, mean of three independent experiments in triplicates, read-out: EC50 U87 ± SEM
Description: (§1) The antiproliferative activity of a total of 100 compounds was tested against U87 and T98 glioma cell lines, using TMZ[3] and the Topoisomerase I inhibitor SN-38[18] as positive controls. Cells were treated with the library members for 5 d at three different concentrations (3, 30 and 300 µM) and cell viability determined using the PrestoBlue reagent. Half-maximal effective concentration (EC50) values were calculated from the corresponding dose-response curves and plotted in Fig. 2a as a heatmap to facilitate data analysis, with black meaning no activity and dark to light green to yellow transitions indicating decreasing EC50 values (=increasing potencies). Table 1 of the Suppl. Data contains the corresponding EC50 values ± SEM.
(§2) INK128 and SN-38 were used as positive controls. […] Structurally, these derivatives differed in the size of the alkyl group of the N1 position and the presence or absence of an oxygen atom in that moiety (see Suppl. Data).
(§3) U87 and T98 cells (ATCC) were cultured in DMEM (Gibco), supplemented with 10% (v/v) FBS (Gibco) and 2 mM L-Glutamine (Gibco) in a standard incubator (95% humidity, 5% CO2), and subcultured twice per week through trypsinization. G317 patient-derived glioma cells were established by the Glioma Cellular Genetics Resource (gcgr.org.uk) funded by Cancer Research UK. Ethics approval for use of patient-derived cells and early access confirmation to reagents from the Glioma Cellular Genetics Resource assured that all ethical issues according to UK legislation are fulfilled. G317 were cultured in DMEM/HAMS-F12 (Sigma) supplemented with 1.5 g L^−1 D-(+)-Glucose (Sigma), MEM non-essential aminoacids (Gibco), 0.015% (w/v) Penicillin-Streptomycin (Gibco), 0.012% (w/v) BSA (Gibco), 0.1 mM β-mercaptoethanol (Gibco), B27 (Gibco) and N2 supplements (Gibco). Cells were detached using accutase solution (Sigma) and subcultured once per week. Before adding to the cells, medium was supplemented with 10 ng ml^−1 mouse EGF (Preprotech), 10 ng ml^−1 human FGF (Preprotech), and 1 µg ml^−1 Laminin (Sigma).
(§4) 1 × 10^3 U87 cells/well, 5 × 10^2 T98 cells/well, 1 × 10^4 G317 cells/well, 1 × 10^4 HBVP cells/well and 1 × 10^4 bEnd3 cells/well were seeded in 96-well plates. After 48 h in culture, cells were treated with the inhibitors for 5 d. For GI50 determination, the viability of a triplicate sample of each experiment before treatment was measured with the PrestoBlue Reagent (Invitrogen), to establish a basepoint 0% of growth. […] ZIP Synergy scores were obtained with Synergy finder.[22] Viability percentage, EC50 and GI50 values were obtained using GraphPad Prism version 8.0.0 for Windows, GraphPad Software, San Diego, California USA, www.graphpad.com.

T98 cells = assay: Cell viability assay (PrestoBlue, 5 d) in T98 glioma cells; type: cell-based; settings: library screen, 5 d treatment, mean of three independent experiments in triplicates, read-out: EC50 T98 ± SEM
Description: as §1, §2, §3, §4

EC50 (U87 cells)	EC50 (T98 cells)	EC50 (U87 cells; Homo sapiens, U-87 MG, 120 h)	EC50 (T98 cells; Homo sapiens, T98, 120 h)	Compound
6.74 ± 1.48 µM	5.72 ± 1.95 µM			Cc1ccc(-c2nn(CCN3CCC(CCN(C)C)CC3)c3ncnc(N)c23)cc1 [eCF113]
20.9 ± 1.73 µM	6.36 ± 0.563 µM			CNc1ncc2c(-c3ccc(OC)cc3)nn(CC3CCCC3)c2n1 [eSM105]
> 30 µM	> 30 µM			COc1cc(-c2nn(CCN3CCCC(N(C)C)C3)c3ncnc(N)c23)ccc1NC(=O)OC(C)(C)C (centres unmarked) [eCF603]
> 30 µM	> 30 µM			CNc1ncc2c(-c3ccc(N4CCN(C(=O)C(C)(C)C)CC4)nc3)nn(Cc3cn(Cc4ccccc4)nn3)c2n1 [eSM153]
> 30 µM	> 30 µM			CN(C)C1CCN(CCn2nc(-c3ccc(NC(=O)OC(C)(C)C)nc3)c3c(N)ncnc32)CC1 [eCF549]
> 30 µM	> 30 µM			Cc1ccc(-c2nn(CCN3CCN(CCN(C)C)CC3)c3ncnc(N)c23)cc1 [eCF105]
> 30 µM	> 30 µM			CNc1ncc2c(-c3ccc(N(C)C)nc3)nn(Cc3cn(Cc4ccccc4)nn3)c2n1 [eSM146]
> 30 µM	> 30 µM			CN(C)CC1CCN(CCn2nc(-c3cccc(O)c3)c3c(N)ncnc32)CC1 [eCF225]
> 30 µM	> 30 µM			Cc1ccc(-c2nn(CCN3CCC(C)CC3)c3ncnc(N)c23)cc1 [eCF110]
8.56 ± 0.564 µM	6.58 ± 1.47 µM			COc1ccc(-c2nn(CC3CCCC3)c3ncnc(N)c23)cc1OC [eSM204]
> 30 µM	> 30 µM			CN(C)C1CCN(CCn2nc(-c3ccc(NCc4ccccn4)cc3)c3c(N)ncnc32)CC1 [eCF576]
> 30 µM	> 30 µM			CN(C)C1CCN(CCn2nc(-c3cccc(NC(=O)OC(C)(C)C)c3)c3c(N)ncnc32)CC1 [eCF542]
		6.16 ± 1.22 µM	7.34 ± 1.56 µM	COC(Cn1nc(-c2cnc3[nH]ccc3c2)c2c(N)ncnc21)OC [eCF308]
> 30 µM	> 30 µM			CCOC(Cn1nc(-c2cccc(NC(=O)OC(C)(C)C)c2)c2c(N)ncnc21)OCC [eCF207]
> 30 µM	15.6 ± 2.75 µM			CCNc1ncc2c(-c3ccc(N4CCNCC4)nc3)nn(CC3OCCO3)c2n1 [eSM133]
> 30 µM	> 30 µM			Cc1ccc(-c2nn(CCN3CCC(O)CC3)c3ncnc(N)c23)cc1 [eCF106]
> 30 µM	> 30 µM			CCOC(Cn1nc(-c2ccoc2)c2c(N)ncnc21)OCC [eCF206]
13 ± 0.291 µM	6.26 ± 1.39 µM			CNc1ncc2c(-c3ccc(N4CCNCC4)cc3)nn(Cc3cn(Cc4ccccc4)nn3)c2n1 [eSM135]
16.5 ± 1.88 µM	26.3 ± 1.81 µM			CNc1ncc2c(-c3ccc(N4CCNCC4)nc3)nn(Cc3cn(C4CCCC4O)nn3)c2n1 (centres unmarked) [eSM121]
6.63 ± 1.44 µM	6.28 ± 1.91 µM			Cc1ccc(-c2nn(CCN3CCC(CN(C)C)CC3)c3ncnc(N)c23)cc1 [eCF112]
29.2 ± 3.88 µM	9.1 ± 1.37 µM			COc1cc(-c2nn(CCN3CCC(N(C)C)CC3)c3ncnc(N)c23)ccc1NC(=O)Oc1ccccc1 [eCF532]
14.3 ± 6.14 µM	11.9 ± 6.5 µM			COc1ccc(-c2nn(CC3CCCC3)c3ncnc(N)c23)cc1 [eSM205]
> 30 µM	> 30 µM			CCOC(Cn1nc(-c2ccc(OC)c(OC)c2)c2c(N)ncnc21)OCC [eCF204]
21.3 ± 2.35 µM	9.26 ± 0.465 µM			CNc1ncc2c(-c3ccc(N4CCNCC4)nc3)nn(CC3OCCO3)c2n1 [eSM112]
18.9 ± 5.27 µM	18.8 ± 3.57 µM			CNc1ncc2c(-c3ccc(N4CCN(C)CC4)nc3)nn(Cc3cn(Cc4ccccc4)nn3)c2n1 [eSM134]
21.1 ± 3.02 µM	14.4 ± 7.53 µM			COc1cc(-c2nn(CCN3CCC(N(C)C)CC3)c3ncnc(N)c23)ccc1NC(=O)N(C)C(C)(C)C [eCF608]

EC50 (U87 cells)	EC50 (T98 cells)	EC50 (U87 cells; Homo sapiens, U-87 MG, 120 h)	EC50 (T98 cells; Homo sapiens, T98, 120 h)	Compound
> 30 µM	17.6 ± 3.24 µM			COc1cc(-c2nn(CCN3CCC(N(C)C)CC3)c3ncnc(N)c23)ccc1NC(=O)NC(C)(C)C [eCF537]
> 30 µM	> 30 µM			CN(C)CC1CCN(CCn2nc(-c3ccc4ncccc4c3)c3c(N)ncnc32)CC1 [eCF223]
> 30 µM	6.58 ± 2.18 µM			CN(C)C1CCN(CCn2nc(-c3ccc(CC(=O)OC(C)(C)C)cc3)c3c(N)ncnc32)CC1 [eCF553]
> 30 µM	11.4 ± 1.44 µM			CN(C)C1CCN(CCn2nc(-c3ccc(NC(=O)OC(C)(C)C)cc3)c3c(N)ncnc32)CC1 [eCF543]
25 ± 3.15 µM	18.8 ± 2.69 µM			Nc1ncnc2c1c(-c1ccc(C(F)(F)F)cc1)nn2CC1CCCC1 [eSM210]
20.3 ± 2.63 µM	26.2 µM			Nc1ncc(-c2ccc(-c3nn(CC4CCCC4)c4ncnc(N)c34)cc2)o1 [eCF341]
> 30 µM	> 30 µM			Cc1ccc(-c2nn(CCN3CCOCC3)c3ncnc(N)c23)cc1 [eCF102]
23.6 ± 2.51 µM	15.6 ± 1.45 µM			Nc1ncnc2c1c(-c1ccoc1)nn2C1CCCC1 [eSM209]
3.06 ± 0.833 µM	3.02 ± 0.568 µM			CNc1ncc2c(-c3ccc(N4CCNCC4)nc3)nn(Cc3cn(-c4ccc(Cl)cc4)nn3)c2n1 [eSM143]
22.6 ± 5.38 µM	11.1 ± 1.1 µM			COc1cc(-c2nn(CCN3CCC(N(C)C)CC3)c3ncnc(N)c23)ccc1NC(=O)CCc1ccccc1 [eCF531]
14.2 ± 0.557 µM	9.11 ± 1.67 µM			CNc1ncc2c(-c3cnc4[nH]ccc4c3)nn(Cc3cn(Cc4ccccc4)nn3)c2n1 [eSM145]
8 ± 3.32 µM	1.77 ± 0.865 µM			CNc1ncc2c(-c3ccc(N4CCN(C)CC4)cc3)nn(CC3CCCC3)c2n1 [eSM156]
> 30 µM	> 30 µM			CN(C)CC1CCN(CCn2nc(-c3ccoc3)c3c(N)ncnc32)CC1 [eCF226]
> 30 µM	> 30 µM			CNc1ncc2c(-c3ccc(F)cc3)nn(CC3OCCO3)c2n1 [eSM113]
> 30 µM	16.7 ± 2.8 µM			COc1cc(-c2nn(CCN3CCC(N(C)C)CC3)c3ncnc(N)c23)ccc1NC(=O)Oc1ccccc1 [eCF535]
> 30 µM	> 30 µM			COc1ccc(-c2nn(CCN3CCC(CN(C)C)CC3)c3ncnc(N)c23)cc1OC [eCF224]
> 30 µM	> 30 µM			CNc1ncc2c(-c3ccc(N4CCN(C(=O)NC(C)(C)C)CC4)nc3)nn(CC3CCCC3)c2n1 [eSM149]
> 30 µM	> 30 µM			CCN1CCN(c2ccc(-c3nn(Cc4cn(Cc5ccccc5)nn4)c4nc(NC)ncc34)cn2)CC1 [eSM155]
22.7 ± 9.53 µM	10.1 ± 3 µM			CNc1ncc2c(-c3ccc(N4CCN(C(=O)C(C)(C)C)CC4)nc3)nn(CC3CCCC3)c2n1 [eSM150]
> 30 µM	> 30 µM			CCOC(Cn1nc(-c2ccc3ncccc3c2)c2c(N)ncnc21)OCC [eCF203]
> 30 µM	> 30 µM			CN(C)C1CCN(CCn2nc(-c3ccc(NC(=O)OC(C)(C)C)c(O)c3)c3c(N)ncnc32)CC1 [eCF562]
> 30 µM	> 30 µM			COc1ccc(-c2nn(CCN3CCC(N(C)C)CC3)c3ncnc(N)c23)cc1NC(=O)OC(C)(C)C [eCF558]
7.28 ± 2.7 µM	1.71 ± 0.512 µM			CNc1ncc2c(-c3ccc(N4CCN(C)CC4)nc3)nn(CC3CCCC3)c2n1 [eSM157]
> 30 µM	> 30 µM			Cc1ccc(-c2nn(CCN3CCCCC3)c3ncnc(N)c23)cc1 [eCF111]
8.22 ± 0.671 µM	3.79 ± 0.519 µM			COc1cc(-c2nn(CCN3CCC(N(C)C)CC3)c3ncnc(N)c23)ccc1NC(=O)OCc1ccccc1 [eCF533]
> 30 µM	> 30 µM			CCOC(Cn1nc(-c2ccc(C(N)=O)cc2)c2c(N)ncnc21)OCC [eCF209]
